The IC50 is the concentration at which inhibition is half-maximal. Read a high IC50 as lower potency.

Sequence of LRRK2 G2019S enzyme (Q5S007 whole entry G2019S): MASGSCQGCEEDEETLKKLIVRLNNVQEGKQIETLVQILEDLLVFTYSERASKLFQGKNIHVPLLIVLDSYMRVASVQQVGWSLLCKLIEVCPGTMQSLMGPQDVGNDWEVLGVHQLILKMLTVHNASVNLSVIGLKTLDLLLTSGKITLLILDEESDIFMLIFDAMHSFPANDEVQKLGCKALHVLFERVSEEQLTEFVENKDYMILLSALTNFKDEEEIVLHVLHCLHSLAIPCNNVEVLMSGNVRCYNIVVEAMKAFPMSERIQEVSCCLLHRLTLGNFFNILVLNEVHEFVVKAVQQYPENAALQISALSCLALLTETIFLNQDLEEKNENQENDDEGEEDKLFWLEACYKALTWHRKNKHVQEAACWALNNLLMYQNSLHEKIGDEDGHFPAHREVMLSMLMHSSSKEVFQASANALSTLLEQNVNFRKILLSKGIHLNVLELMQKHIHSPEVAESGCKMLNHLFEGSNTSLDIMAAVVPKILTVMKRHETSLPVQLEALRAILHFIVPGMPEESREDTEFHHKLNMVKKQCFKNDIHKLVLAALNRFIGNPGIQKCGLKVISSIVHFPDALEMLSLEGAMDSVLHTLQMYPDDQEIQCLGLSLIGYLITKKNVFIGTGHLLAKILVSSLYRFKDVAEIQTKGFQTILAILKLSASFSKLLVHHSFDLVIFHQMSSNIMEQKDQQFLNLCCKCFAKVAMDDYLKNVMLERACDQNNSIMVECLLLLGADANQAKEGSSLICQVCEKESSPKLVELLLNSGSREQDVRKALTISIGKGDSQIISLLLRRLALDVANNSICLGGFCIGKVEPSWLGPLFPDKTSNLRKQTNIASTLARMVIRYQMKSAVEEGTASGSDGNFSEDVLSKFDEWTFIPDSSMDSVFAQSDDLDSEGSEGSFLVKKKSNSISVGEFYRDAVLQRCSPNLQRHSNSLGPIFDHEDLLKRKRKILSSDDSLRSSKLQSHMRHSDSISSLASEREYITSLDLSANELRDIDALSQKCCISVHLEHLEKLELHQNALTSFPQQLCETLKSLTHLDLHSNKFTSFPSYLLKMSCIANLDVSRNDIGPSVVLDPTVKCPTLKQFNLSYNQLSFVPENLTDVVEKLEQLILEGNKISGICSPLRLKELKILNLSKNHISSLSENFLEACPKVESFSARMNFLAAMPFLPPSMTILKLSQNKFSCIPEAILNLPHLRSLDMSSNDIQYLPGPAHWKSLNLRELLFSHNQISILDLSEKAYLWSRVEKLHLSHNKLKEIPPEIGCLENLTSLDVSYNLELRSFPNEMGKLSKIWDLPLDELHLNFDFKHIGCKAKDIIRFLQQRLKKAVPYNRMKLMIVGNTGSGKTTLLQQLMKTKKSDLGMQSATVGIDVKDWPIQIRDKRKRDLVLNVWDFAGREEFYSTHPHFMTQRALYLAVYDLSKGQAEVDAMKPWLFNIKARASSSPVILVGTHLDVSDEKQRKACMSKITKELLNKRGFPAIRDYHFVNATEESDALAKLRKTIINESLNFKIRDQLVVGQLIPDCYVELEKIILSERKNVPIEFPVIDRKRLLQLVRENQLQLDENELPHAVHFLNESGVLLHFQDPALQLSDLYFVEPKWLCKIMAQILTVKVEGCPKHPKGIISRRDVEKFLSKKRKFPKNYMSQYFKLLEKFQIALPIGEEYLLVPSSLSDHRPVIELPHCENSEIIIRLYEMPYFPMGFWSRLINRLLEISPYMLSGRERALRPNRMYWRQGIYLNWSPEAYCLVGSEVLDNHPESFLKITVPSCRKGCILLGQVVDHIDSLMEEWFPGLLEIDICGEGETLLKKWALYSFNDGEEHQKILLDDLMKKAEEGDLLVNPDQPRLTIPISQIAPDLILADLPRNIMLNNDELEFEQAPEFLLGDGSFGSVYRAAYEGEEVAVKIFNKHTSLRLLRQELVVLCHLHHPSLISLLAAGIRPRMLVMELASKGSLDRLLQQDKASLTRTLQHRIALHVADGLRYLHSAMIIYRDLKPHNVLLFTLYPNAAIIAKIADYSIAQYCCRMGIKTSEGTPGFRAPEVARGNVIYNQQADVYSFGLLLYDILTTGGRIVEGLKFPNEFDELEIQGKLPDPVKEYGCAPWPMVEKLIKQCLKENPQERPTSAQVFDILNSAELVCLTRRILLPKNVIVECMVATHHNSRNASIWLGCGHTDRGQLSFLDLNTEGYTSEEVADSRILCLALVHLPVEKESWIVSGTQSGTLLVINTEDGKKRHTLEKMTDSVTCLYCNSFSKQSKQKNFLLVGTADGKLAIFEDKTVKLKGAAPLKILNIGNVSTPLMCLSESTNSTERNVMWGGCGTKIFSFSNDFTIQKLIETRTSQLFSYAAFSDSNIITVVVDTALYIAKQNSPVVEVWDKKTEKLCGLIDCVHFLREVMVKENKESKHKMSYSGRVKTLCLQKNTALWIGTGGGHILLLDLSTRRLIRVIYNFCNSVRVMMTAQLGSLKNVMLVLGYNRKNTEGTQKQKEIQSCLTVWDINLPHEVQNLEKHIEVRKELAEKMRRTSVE

In the assay the target is LRRK2 G2019S enzyme (Homo sapiens (Human), UniProt Q5S007, G2019S). The assay is described as follows: LRRK2 G2019S TR-FRET biochemical kinase assay (LRRKtide substrate). The following applies: Table D-4; 5 nM LRRK2, 134 μM ATP, 60 minute reaction, 23° C. An outline of the steps:
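5 nM LRRK2 G2019S preincubated 20 min with LRRKtide and compound (3.162-fold dilution series) in Tris pH 7.5, MgCl2, EGTA, Brij-35, DTT, then reacted 60 min at 23 °C with 134 μM ATP. EDTA-stopped; pLRRKtide antibody detection, TR-FRET read at 340 nm excitation, 520/490–495 nm emission.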
(In general: TR-FRET usually uses a lanthanide donor and a delayed reading to cut background.)
The molecule `CNc1nc(Nc2cnn(CC3(COC)CC3)c2Cl)ncc1C(F)(F)F` [Compound D-12, N2-[5-chloro-1-[[1-(methoxymethyl)cyclopropyl]methyl]pyrazol-4-yl]-N4-methyl-5-(trifluoromethyl)pyrimidine-2,4-diamine] had an IC50 below 30 nM.

On to `CNc1nc(Nc2cn(C(F)(F)C#N)nc2C)ncc1C(F)(F)F` [Compound D-13, 2,2-difluoro-2-[3-methyl-4-[[4-(methylamino)-5-(trifluoromethyl)pyrimidin-2-yl]amino]pyrazol-1-yl]acetonitrile], for which the IC50 is below 30 nM.

As for `CNc1nc(Nc2cn(C(F)(F)C(N)=O)nc2C)ncc1C(F)(F)F` [Compound D-14, 2,2-difluoro-2-[3-methyl-4-[[4-(methylamino)-5-(trifluoromethyl)pyrimidin-2-yl]amino]pyrazol-1-yl]acetamide], the half-maximal inhibitory concentration (IC50) is below 30 nM.

As to `CCNc1nc(Nc2cnn(CCOC(F)F)c2C)ncc1C(F)(F)F` [Compound D-15, N2-[1-[2-(difluoromethoxy)ethyl]-5-methyl-pyrazol-4-yl]-N4-ethyl-5-(trifluoromethyl)pyrimidine-2,4-diamine], the 50% inhibitory concentration (IC50) was below 30 nM.

`CCNc1nc(Nc2cn(CCOC(F)F)nc2C)ncc1C(F)(F)F` [Compound D-16, N2-[1-[2-(difluoromethoxy)ethyl]-3-methyl-pyrazol-4-yl]-N4-ethyl-5-(trifluoromethyl)pyrimidine-2,4-diamine]: the IC50 is below 30 nM.

`CNc1nc(Nc2cnn(CC(C)OC(F)F)c2C)ncc1C(F)(F)F` [Compound D-17] yielded a 50% inhibitory concentration (IC50) below 30 nM.

`CNc1nc(Nc2cn(CC(C)OC(F)F)nc2C)ncc1C(F)(F)F` [Compound D-18] returned a half-maximal inhibitory concentration (IC50) above 60 nM.

`CNc1nc(Nc2cnn(C[C@@H](C)OC(F)F)c2C)ncc1C(F)(F)F` [Compound D-19, N2-[1-[(2R)-2-(difluoromethoxy)propyl]-5-methyl-pyrazol-4-yl]-N4-methyl-5-(trifluoromethyl)pyrimidine-2,4-diamine]: the concentration for half-maximal inhibition (IC50) was below 30 nM.

Turning to `CNc1nc(Nc2cn(C[C@@H](C)OC(F)F)nc2C)ncc1C(F)(F)F` [Compound D-20, N2-[1-[(2R)-2-(difluoromethoxy)propyl]-3-methyl-pyrazol-4-yl]-N4-methyl-5-(trifluoromethyl)pyrimidine-2,4-diamine], the IC50 is above 60 nM.

In the case of `CNc1nc(Nc2cn(C(C)COC(F)F)nc2C)ncc1C(F)(F)F` [Compound D-21, N2-[1-[2-(difluoromethoxy)-1-methyl-ethyl]-3-methyl-pyrazol-4-yl]-N4-methyl-5-(trifluoromethyl)pyrimidine-2,4-diamine], the 50% inhibitory concentration (IC50) fell in the range of 30 to 60 nM.

With `CNc1nc(Nc2cnn([C@H]3C[C@H](OC(F)F)C3)c2C)ncc1C(F)(F)F` [Compound D-25, trans-N2-[1-[3-(difluoromethoxy)cyclobutyl]-5-methyl-pyrazol-4-yl]-N4-methyl-5-(trifluoromethyl)pyrimidine-2,4-diamine], the concentration for half-maximal inhibition (IC50) is below 30 nM.

For `CNc1nc(Nc2cn([C@H]3C[C@H](OC(F)F)C3)nc2C)ncc1C(F)(F)F` [Compound D-26, trans-N2-[1-[3-(difluoromethoxy)cyclobutyl]-3-methyl-pyrazol-4-yl]-N4-methyl-5-(trifluoromethyl)pyrimidine-2,4-diamine], the 50% inhibitory concentration (IC50) is below 30 nM.

For `CNc1nc(Nc2cn([C@H]3C[C@@H](n4cccn4)C3)nc2C)ncc1C(F)(F)F` [Compound D-27, cis-N4-methyl-N2-[3-methyl-1-(3-pyrazol-1-ylcyclobutyl)pyrazol-4-yl]-5-(trifluoromethyl)pyrimidine-2,4-diamine], the concentration for half-maximal inhibition (IC50) is below 30 nM.

Regarding `CNc1nc(Nc2cn([C@H]3C[C@@H](S(C)(=O)=O)C3)nc2C)ncc1C(F)(F)F` [Compound D-28, cis-N4-methyl-N2-[3-methyl-1-(3-methylsulfonylcyclobutyl)pyrazol-4-yl]-5-(trifluoromethyl)pyrimidine-2,4-diamine], the IC50 is below 30 nM.

On to `CNc1nc(Nc2cnn([C@H]3C[C@H](CC#N)C3)c2C)ncc1C(F)(F)F` [Compound D-29, trans-2-[3-[4-[[5-(difluoromethyl-fluoranyl)-4-(methylamino)pyrimidin-2-yl]amino]-5-methyl-pyrazol-1-yl]cyclobutyl]acetonitrile], for which the IC50 was below 30 nM.

For `CNc1nc(Nc2cn([C@H]3C[C@H](CC#N)C3)nc2C)ncc1C(F)(F)F` [Compound D-30, trans-2-[3-[4-[[5-(difluoromethyl-fluoranyl)-4-(methylamino)pyrimidin-2-yl]amino]-3-methyl-pyrazol-1-yl]cyclobutyl]acetonitrile], the half-maximal inhibitory concentration (IC50) was below 30 nM.

`CNc1nc(Nc2cnn([C@H]3C[C@H](COC(F)F)C3)c2C)ncc1C(F)(F)F` [Compound D-31, trans-N2-[1-[3-(difluoromethoxymethyl)cyclobutyl]-5-methyl-pyrazol-4-yl]-5-(difluoromethyl-fluoranyl)-N4-methyl-pyrimidine-2,4-diamine] gave a concentration for half-maximal inhibition (IC50) below 30 nM.

In turn, `CNc1nc(Nc2cn([C@H]3C[C@H](COC(F)F)C3)nc2C)ncc1C(F)(F)F` [Compound D-32, trans-N2-[1-[3-(difluoromethoxymethyl)cyclobutyl]-3-methyl-pyrazol-4-yl]-5-(difluoromethyl-fluoranyl)-N4-methyl-pyrimidine-2,4-diamine] returned a 50% inhibitory concentration (IC50) below 30 nM.

The molecule `CNc1nc(Nc2cnn(CC3(CC#N)CC3)c2Cl)ncc1C(F)(F)F` [Compound D-33, 2-(1-((5-chloro-4-((4-(methylamino)-5-(trifluoromethyl)pyrimidin-2-yl)amino)-1H-pyrazol-1-yl)methyl)cyclopropyl)acetonitrile] returned an IC50 below 30 nM.

`CNc1nc(Nc2cn(C3CCCn4ccnc43)nc2C)ncc1C(F)(F)F` [Compound D-34, N^4-methyl-N^2-(3-methyl-1-(5,6,7,8-tetrahydroimidazo[1,2-a]pyridin-8-yl)-1H-pyrazol-4-yl)-5-(trifluoromethyl)pyrimidine-2,4-diamine] showed a concentration for half-maximal inhibition (IC50) below 30 nM.

Turning to `CNc1nc(Nc2cn(C3CCc4c(C)noc43)nc2C)ncc1C(F)(F)F` [Compound D-35, N^4-methyl-N^2-(3-methyl-1-(3-methyl-5,6-dihydro-4H-cyclopenta[d]isoxazol-6-yl)-1H-pyrazol-4-yl)-5-(trifluoromethyl)pyrimidine-2,4-diamine], the half-inhibitory concentration (IC50) is below 30 nM.

Take `CNc1nc(Nc2cn(C3CCn4nccc43)nc2C)ncc1C(F)(F)F` [Compound D-36, N^2-(1-(5,6-dihydro-4H-pyrrolo[1,2-b]pyrazol-4-yl)-3-methyl-1H-pyrazol-4-yl)-N^4-methyl-5-(trifluoromethyl)pyrimidine-2,4-diamine]: the half-maximal inhibitory concentration (IC50) was above 60 nM.

For `CNc1nc(Nc2cn(C3CCc4c3cnn4C)nc2C)ncc1C(F)(F)F` [Compound D-37, N^4-methyl-N^2-(3-methyl-1-(1-methyl-1,4,5,6-tetrahydrocyclopenta[c]pyrazol-4-yl)-1H-pyrazol-4-yl)-5-(trifluoromethyl)pyrimidine-2,4-diamine], the IC50 is 30 to 60 nM.

`CCSc1nc(Nc2cn(C(C)(C)C#N)nc2C)ncc1Cl` [Compound D-44, 2-[4-[(5-chloro-4-ethylsulfanyl-pyrimidin-2-yl)amino]-3-methyl-pyrazol-1-yl]-2-methyl-propanenitrile] had an IC50 below 30 nM.

Turning to `CCSc1nc(Nc2cn(C(C)(C)C#N)nc2C)ncc1C(F)(F)F` [Compound D-45, 2-[4-[[4-ethylsulfanyl-5-(trifluoromethyl)pyrimidin-2-yl]amino]-3-methyl-pyrazol-1-yl]-2-methyl-propanenitrile], the half-maximal inhibitory concentration (IC50) is below 30 nM.

On to `CSc1nc(Nc2cn(C(C)(C)C#N)nc2C)ncc1C(F)(F)F` [Compound D-46, 2-methyl-2-[3-methyl-4-[[4-methylsulfanyl-5-(trifluoromethyl)pyrimidin-2-yl]amino]pyrazol-1-yl]propanenitrile], for which the IC50 lay in the range of 30 to 60 nM.

For the molecule `CCSc1nc(Nc2cn(C(C)(C)C#N)nc2C)ncc1C#N` [Compound D-47, 2-[[1-(1-cyano-1-methyl-ethyl)-3-methyl-pyrazol-4-yl]amino]-4-ethylsulfanyl-pyrimidine-5-carbonitrile], the IC50 is above 60 nM.

Take `CNc1nc(Nc2cnn(C(C)COC(F)F)c2C)ncc1C(F)(F)F` [Compound D-48, N2-[1-[2-(difluoromethoxy)-1-methyl-ethyl]-5-methyl-pyrazol-4-yl]-5-(difluoromethyl-fluoranyl)-N4-methyl-pyrimidine-2,4-diamine]: the IC50 is below 30 nM.

Regarding `CNc1nc(Nc2cnn([C@H]3C[C@@H](n4cccn4)C3)c2C)ncc1C(F)(F)F` [Compound D-49, cis-N4-methyl-N2-[5-methyl-1-(3-pyrazol-1-ylcyclobutyl)pyrazol-4-yl]-5-(trifluoromethyl)pyrimidine-2,4-diamine], the half-maximal inhibitory concentration (IC50) is below 30 nM.

`CNc1nc(Nc2cnn([C@H]3C[C@@H](S(C)(=O)=O)C3)c2C)ncc1C(F)(F)F` [Compound D-50, cis-N4-methyl-N2-[5-methyl-1-(3-methylsulfonylcyclobutyl)pyrazol-4-yl]-5-(trifluoromethyl)pyrimidine-2,4-diamine] came in with a half-inhibitory concentration (IC50) below 30 nM.

`CNc1nc(Nc2cnn(C3CCc4c3cnn4C)c2C)ncc1C(F)(F)F` [Compound D-56] showed an IC50 below 30 nM.

As for `CCNc1nc(Nc2cn(C3CCc4ncsc43)nc2C)ncc1C(F)(F)F` [Compound D-57], the half-inhibitory concentration (IC50) was below 30 nM.

`CCNc1nc(Nc2cnn([C@H]3C[C@H](n4nccn4)C3)c2C)ncc1C(F)(F)F` [Compound D-58] registered an IC50 below 30 nM.

Molecule `CCNc1nc(Nc2cnn([C@H]3C[C@@H](n4cncn4)C3)c2C)ncc1C(F)(F)F` [Compound D-59] returned a concentration for half-maximal inhibition (IC50) below 30 nM.

For the molecule `CCNc1nc(Nc2cnn(C3Cc4nccn4C3)c2C)ncc1C(F)(F)F` [Compound D-60], the 50% inhibitory concentration (IC50) is below 30 nM.

`CCNc1nc(Nc2cnn([C@H]3C[C@H](n4ncnc4C(F)(F)F)C3)c2C)ncc1C(F)(F)F` [Compound D-61] came in with a half-maximal inhibitory concentration (IC50) below 30 nM.

`CCNc1nc(Nc2cn(C3CCn4ccnc43)nc2Cl)ncc1C(F)(F)F` [Compound D-62] yielded an IC50 above 60 nM.

These data come from US11214565B2, “Compound, compositions, and methods” (Denali Therapeutics Inc., priority 2015, dated 2022).
